Like-named read-outs stand apart in the source and are kept apart here.
How the values were obtained:
[1] = system: esophagus; conditions: oral; literature; cited from earlier work
[2] = system: canine esophagus; assay: Esophageal irritation potential in a dog model (infusion into esophagus, histopathology); conditions: for Esophageal irritation potential: low dosages on consecutive days (Groups 7 and 8)
Experimental: The esophageal irritation potential of the bisphosphonates is evaluated using a dog model.
The following solutions are prepared:
(1) simulated gastric juice (pH about 2), i.e. the control solution.
(5) simulated gastric juice (pH about 2) containing about 0.20 mg/mL of risedronate sodium on a risedronic acid active basis.
(6) simulated gastric juice (pH about 2) containing about 4.0 mg/mL of tiludronate disodium on a tiludronic acid active basis.
The pH of the resulting solution is measured and if necessary is adjusted to about 2 using 1.0 M HCl (aqueous) or 1.0 M NaOH (aqueous).
The animals used in the experiments are anesthetized and administered about 50 mL of the appropriate solution over about 30 minutes by infusion into the esophagus using an infusion pump and a rubber catheter. The following treatment experiments are run:
Group 1: This control group contains four animals. Each animal is administered a dosage of about 50 mL of simulated gastric juice [solution (1)] on each of five consecutive days. The animals are sacrificed immediately after the last dose is administered. […]
Group 7: This group contains eight animals. Each animal is administered a dosage of about 50 mL of simulated gastric juice containing about 0.20 mg/mL of risedronate [solution (5)] on each of five consecutive days. The animals are sacrificed immediately after the last dose is administered.
Group 8: This group contains four animals. Each animal is administered a dosage of about 50 mL of simulated gastric juice containing about 4.0 mg/mL of tiludronate [solution (6)] on each of five consecutive days. The animals are sacrificed immediately after the last dose is administered.
The esophagus from each sacrificed animal is removed and prepared for histopathology using standard techniques by embedding the tissue in paraffin, staining with hematoxylin and eosin. The sections are examined microscopically.

[3] = system: bone; conditions: cited from earlier work
[4] = system: bone; conditions: Mortensen et al. 1995; cited from earlier work
[5] = 0.20 mg/mL alendronate, 50 mL, 1x daily for 5 days, sacrifice immediately after last dosing (Group 2, n = 4), monosodium trihydrate
[6] = 0.40 mg/mL alendronate, 50 mL, 2x weekly for 4 weeks (Group 6, n = 6), sacrifice about four days after last dose, immediately (Table 1), monosodium trihydrate
[7] = 0.80 mg/mL alendronate, 50 mL, 1x weekly for a total of 4 doses, sacrifice 7 days after last dosing (Group 5, n = 6), monosodium trihydrate
[8] = 0.80 mg/mL alendronate, 50 mL, single dose, sacrifice 24 hours after dosing (Group 3, n = 5), monosodium trihydrate
[9] = 0.80 mg/mL alendronate, 50 mL, single dose, sacrifice 7 days after dosing (Group 4, n = 5), monosodium trihydrate
[10] = 0.20 mg/mL risedronate, 50 mL, 1x daily for 5 days, sacrifice immediately after last dosing (Group 7, n = 8)

NCCCC(O)(P(=O)(O)O)P(=O)(O)O [Alendronate, 4-amino-1-hydroxybutylidene-1,1-bisphosphonic acid monosodium trihydrate]
Adverse esophageal effects associated with use [1]: esophagitis and/or esophageal ulcers
Histopathology: esophageal epithelial surface [2, 5]: deep ulceration of the epithelial surface
Histopathology: submucosal inflammation and vacuolation [2, 5]: marked submucosal inflammation and vacuolation
Histopathology: esophageal epithelial surface [2, 6]: deep ulceration of the epithelial surface
Histopathology: submucosal inflammation and vacuolation [2, 6]: marked submucosal inflammation and vacuolation
Histopathology: vacuolation ([2]; 0.80 mg/mL alendronate, 50 mL, 1x weekly for a total of 4 doses, sacrifice 7 days after last dosing (Group 5, n = 6)): no
Histopathology: esophageal epithelium [2, 7]: normal with an intact epithelium
Histopathology: submucosal inflammation [2, 7]: absence of inflammatory cells in the submucosa and no
Histopathology: esophageal epithelial surface [2, 8]: intact epithelial surface
Histopathology: submucosal inflammation and vacuolation [2, 8]: very slight submucosal inflammation and vacuolation
Histopathology: esophageal epithelium [2, 9]: intact epithelium
Histopathology: vacuolation [2, 9]: no vacuolation and no

CC(O)(P(=O)(O)O)P(=O)(O)O [Etidronate, 1-hydroxyethane-1,1-diphosphonic acid]
Effect on bone mineralization ([3]; at doses used clinically): impairs mineralization
Effect on bone mineralization ([3]; given daily for more than several days): decline in bone mineralization

NCCC(O)(P(=O)(O)O)P(=O)(O)O [Pamidronate, 3-amino-1-hydroxypropylidene-1,1-bisphosphonic acid]
Adverse esophageal effects associated with use [1]: esophageal ulcers

O=P(O)(O)C(O)(Cc1cccnc1)P(=O)(O)O [Risedronate, 1-hydroxy-2-(3-pyridinyl)-ethylidene-1,1-bisphosphonic acid]
Antiresorptive bone effect, cyclic versus continuous daily dosing [4]: less effective than continuous daily dosing
Histopathology: animals with deep ulceration of epithelial surface [2, 10]: 4 of 8 animals
Histopathology: esophageal epithelial surface [2, 10]: deep ulceration of the epithelial surface
Histopathology: submucosal inflammation and vacuolation [2, 10]: marked submucosal inflammation and vacuolation
Esophageal irritation potential [2]: high

O=P(O)(O)C(Sc1ccc(Cl)cc1)P(=O)(O)O [Tiludronate, (4-chlorophenyl)thiomethane-1,1-disphosphonic acid]
Esophageal irritation potential [2]: high

Reference: patent publication US6015801A, “Method for inhibiting bone resorption” (Merck & Co., Inc., priority 1998, dated 2000)
